Data as given in US10729693B2, “Compositions and methods for the treatment of endometriosis” (PONCE MEDICAL SCHOOL FOUNDATION, INC., priority 2018, dated 2020).

Assays:
[1] = system: CRH, UCN1, CRHR1, CRHR2 and glucocorticoid receptor (GR) mRNA; assay: qRT-PCR of mRNA levels in uterus and endometriosis vesicles; type: in vivo, rat; details: normalized to sham uterus, day 60
Description: Endometriosis vesicles and normal uterine tissue from endometriosis or sham rats, were lysed in an RLT buffer (QIAGEN, Germantown, Md.) using the BULLET BLENDER Tissue Homogenizer (NEXT ADVANCE, Averill Park, N.Y.). The total RNA from the lysates were extracted according to RNEASY Mini Kit manufacturer's protocol (QIAGEN, Germantown, Md.). RNA concentration and purity were measured on a NanoDrop™ 2000 UV spectrophotometer (Thermo Scientific™, Wilmington, USA). Concentration and quality of RNA samples were acquired based on the ratio of absorbance at 260/280 nm in the spectrophotometer. To carry out the synthesis of cDNA from RNA samples a total reaction volume of 20 μl including 0.1 μg of total RNA concentration and synthesis reagents was used. A iScript™ cDNA Synthesis Kit was used according to manufacturer's protocol (BIO-RAD, Hercules, Calif.). Reactions were carried out in T-100™ thermal cycler (BIO-RAD, Hercules, Calif.). RT-PCR running method was as follows: 25° C. for 5 min, 42° C. for 30 min, 85° C. for 5 min. Samples were stored at −80° C. for later experimentation or qRT-PCR.
Real time quantitative PCR (qPCR) was used to evaluate changes in mRNA expression. For this, 25 μl of a total volume of reaction assay was used with 1:10 dilution of cDNA with iQ™ SYBR Green Supermix (BIO-RAD Hercules, Calif.) in a 96 well plate according to the manufacturer protocol and amplified in a Quant Studio™ 12 K Flex Real time PCR System (Applied Biosystems™, Carlsbad, Calif.). Commercial primers for CRH, UCN1 CRHR1, CRHR2 and glucocorticoid receptor (GR) were purchased from QIAGEN (Germantown, Md.). Real time PCR cycles protocol was as follows: 95° C. for 10 min. for enzyme activation followed by 40 cycles of denaturing at 95° C. for 15 sec. and annealing at 60° C. for 1 min. All changes in gene expression were normalized against GAPDH of each sample. CT values and changes per gene expression level were automatically analyzed by the Quantstudio™ 12 K Flex Software (Applied Biosystems™, Carlsbad, Calif.). All samples were run in duplicate. For comparison purposes, mRNA from sham rats were always run within the same plate as experimental samples from vehicle treated and antalarmin treated groups.
GraphPad Prism 6.0 (GraphPad Software, San Diego, Calif.) was used to prepare graphs and run statistical analyses. Data is presented as mean difference+SEM and a p value <0.05 was considered statistically significant. The variability between groups was first assessed followed by a test for outlier values. […] A One-way analysis of variance (ANOVA) was used to compare behaviors. A one-sample t-test against the sham rats value normalized to 1.0. was used to assess RT-PCR results. A repeated measures One-way ANOVA was used to compare changes in weight gain between treatment groups.

[2] = system: corticosterone, adrenocorticotropic hormone (ACTH), IL-6; assay: ELISA of serum corticosterone and ACTH and of peritoneal fluid IL-6; type: in vivo, rat; details: at sacrifice
Text: It was verified that the animals were deeply anesthetized. Rats were weighed, and a cytological smear taken to verify stage of the estrous cycle. The peritoneal and thoracic cavities were opened, and a blood sample was collected directly from the heart. Following this, peritoneal fluid was collected using a sterile plastic pipette. Examination was directed to the presence of endometriosis vesicles. The implants that developed into vesicles were excised from the mesentery, weighed and measured using a digital caliper. Classification of vesicles was carried out and assigned the following grades: grade 1=disappeared; grade 2=0.01-1.99 mm; grade 3=2-4.49 mm; grade 4=4.5-5.99 mm; grade 5=6.0 mm or larger. In sham animals, empty suture sites were counted and collected. In addition to the endometriosis vesicles, the adrenal glands were collected, all surrounding fatty tissue was removed, and the cleared adrenal glands were weighed. Additionally, tissues from colon and the left uterine horn were collected. All tissues were flash frozen and stored at −80° until further processing.
Serum and peritoneal fluid samples from animals were tested for levels of corticosterone, adrenocorticotropic hormone (ACTH) and the pro-inflammatory cytokine IL-6 following instructions in the commercial kits. The following kits were used: Corticosterone rat/mouse kit (Cat. #79175; IBL America, Minneapolis, Minn.); Rat IL-6 pre-coated ELISA kit (Cat. #437107; BioLegend, San Diego, Calif.); Mouse/rat ACTH ELISA kit (Cat. # AC018T-100, Calbiotech, El Cajon, Calif.).

implantation sites = details: rodents; Fas-ligand immune tolerance dependent mechanism; cited from earlier work

In the case of CCCCN(CC)c1nc(C)nc2c1c(C)c(C)n2-c1c(C)cc(C)cc1C [antalarmin], the “UCN1 mRNA in uterus and vesicles” value [1] is reported as “not altered”, the “glucocorticoid receptor (GR) mRNA in uterus” value [1] is reported as “no changes in uterus” and the “glucocorticoid receptor (GR) mRNA in vesicles” value [1] is reported as “significant mRNA fold increase”. For the same molecule, the “CRHR2 mRNA in uterus and vesicles” value ([1]; increase only in vesicles of vehicle animals) was “No other changes were observed”, the “CRHR1 mRNA in endometriosis vesicles” value ([1]; increased in vehicle group) was “this increase was not observed” and the “CRH mRNA in uterus and vesicles” value ([1]; two-fold increase in vehicle rats) was “this increase was not observed”. For the same molecule, the “IL-6 in peritoneal fluid” value ([2]; 53 days after treatment) was “did not produce any change”, the serum corticosterone ([2]; day 60) was “slightly elevated” and the “serum adrenocorticotropic hormone (ACTH)” value ([2]; day 60, compared to vehicle group) was “significantly elevated levels”. The “reduction of the number of implantation sites” value (implantation sites) was 70%.
